Source: ChEMBL document CHEMBL1938289, “Facile synthesis of tetracyclic azepine and oxazocine derivatives and their potential as MAPKAP-K2 (MK2) inhibitors” (Bioorg Med Chem Lett, 2012)
Values after ≈ are worked out from the molar mass of the structure shown. Active and inactive are the calls of the source. The calls are words filed in the database; no cut-off is given here.

How the values were obtained:
[1] = Kinetic solubility of the compound at pH 7.4; conditions: buffer
[2] = target: T1, MAP kinase-activated protein kinase 2 (Homo sapiens, UniProt P49137); experiment: Inhibition of MK2 using TAMRA-labeled peptide as substrate pre-incubated for 30 mins prior substrate addition measured after 30 mins incubation in dark using fluorescence polarization assay
Target sequence in this assay (P49137 whole entry): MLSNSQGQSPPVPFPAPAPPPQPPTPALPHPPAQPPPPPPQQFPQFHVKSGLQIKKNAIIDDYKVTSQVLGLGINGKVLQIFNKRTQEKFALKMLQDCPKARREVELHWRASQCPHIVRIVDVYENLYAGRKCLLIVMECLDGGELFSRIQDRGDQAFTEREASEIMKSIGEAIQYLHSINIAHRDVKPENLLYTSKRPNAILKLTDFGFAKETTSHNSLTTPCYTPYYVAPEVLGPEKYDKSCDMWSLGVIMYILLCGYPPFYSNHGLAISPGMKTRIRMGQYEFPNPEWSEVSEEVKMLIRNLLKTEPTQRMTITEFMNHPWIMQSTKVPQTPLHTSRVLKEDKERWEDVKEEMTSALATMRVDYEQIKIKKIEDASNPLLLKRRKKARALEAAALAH

[3] = target: T1, MAP kinase-activated protein kinase 2; experiment: Inhibition of MK2-mediated HSP27 phosphorylation at Ser78 in LPS-stimulated human THP-1 cells pre-incubated for 60 mins before LPS treatment measured after 60 mins; type: cell-based
Target sequence in this assay (P49137 whole entry): as above

[4] = target: T1, MAP kinase-activated protein kinase 2; experiment: Noncompetitive inhibition of MK2 using TAMRA-labeled peptide as substrate
Target sequence in this assay (P49137 whole entry, looked up): as the sequence (P49137 whole entry) above

solubility kinetic [1] [µM]	IC50 [2] [nM]	EC50 [3] [nM]	inhibition [4]	SMILES
< 16	2.9	260		N#Cc1ccc(-c2cc3c(o2)-c2nccn2-c2ccc(N4CCNCC4)cc2C3)cc1
38 (≈ 16.5 µg/mL)	18		Active	Clc1ccc(-c2cc3c(o2)-c2nccn2-c2ccc(N4CCNCC4)cc2OC3)cc1
20 (≈ 8.34 µg/mL)	7	1500		Clc1ccc(-c2cc3c(o2)-c2nccn2-c2ccc(N4CCNCC4)cc2C3)cc1

Continued, compound first:

SMILES	solubility kinetic [1] [µM]	IC50 [2] [nM]	EC50 [3] [nM]	inhibition [4]
O=C(c1ccc(-c2ccc(Cl)cc2)o1)N(Cc1ccccn1)c1ccc(N2CCNCC2)cc1	> 200			
N#Cc1ccc(-c2cc3c(o2)-c2nncn2-c2ccc(N4CCNCC4)cc2C3)cc1	16 (≈ 6.54 µg/mL)	3.8	260	Active
Cc1nnc2n1-c1ccc(N3CCNCC3)cc1Cc1cc(-c3ccc(Cl)cc3)oc1-2	10 (≈ 4.32 µg/mL)	880		
Clc1ccc(-c2cc3c(o2)-c2nncn2-c2ccc(N4CCNCC4)cc2C3)cc1	10 (≈ 4.18 µg/mL)	9.3	2100	
Cc1cnc2n1-c1ccc(N3CCNCC3)cc1Cc1cc(-c3ccc(Cl)cc3)oc1-2		9.2	2500	
O=C1Nc2ccc(N3CCNCC3)cc2OCc2cc(-c3ccc(Cl)cc3)oc21		110		
Fc1ccc(-c2cc3c(o2)-c2nncn2-c2ccc(N4CCNCC4)cc2C3)cc1	33 (≈ 13.2 µg/mL)	15		
